{"source": "patent US20170144972A1", "about": "“METHODS OF LOWERING PROPROTEIN CONVERTASE SUBTILISIN/KEXIN TYPE 9 (PCSK9)” (Catabasis Pharmaceuticals, Inc., priority 2012, published 2017)", "key": {"[1]": {"system": "ApoE*3 Leiden mice", "test": "Liver weight, plasma cholesterol and triglycerides of ApoE*3 Leiden mice, 16 weeks of treatment", "type": "in vivo", "details": "I-8 in WTD at 7.5 g/kg", "description": "The same experimental design used in example 6 was used. Two treatment groups were used (n=15). The control animals were kept on a Western type diet (WTD) consisting of 1% cholesterol, 15% cacao butter, 40.5% sucrose, and 1% corn oil. For the treatment group, compound I-8 was administered in the above WTD at a ratio of 7.5 g/kg. Animals were maintained on the WTD or treatment group for 16 weeks. At the conclusion of the study, plasma cholesterol and triglyceride levels were recorded, as well as the weight of the liver. There was a significant decrease in plasma cholesterol, triglyceride levels as well as liver weight in the treatment group. After 16 weeks of treatment, the cholesterol level of the treatment group was 420 mg/dL, compared with a level of 750 mg/dL for the control group; the triglyceride level was 110 mg/dL, compared with a level of 160 mg/dL for the control group."}, "[2]": {"system": "Zucker fa/fa Rat model of Dyslipidemia", "test": "Plasma triglyceride level of the Zucker fa/fa rat model of dyslipidemia", "type": "in vivo", "details": "male Zucker rats, po qd, 10, 30, 100 and 300 mg/kg, blood sample day 4", "description": "Male Zucker rats (HsdHlr: Zucker-Lepr̂fa) between 8-10 weeks of age were purchased from Harlan and maintained on Purina Rodent Diet (5001) for the duration of the study. Animals were randomized and assigned to treatment arms based on body weight and plasma triglyceride (TG) levels (n=8). Inclusion criteria for the study include body weight >300 grams and fed TG levels in plasma >800 mg/dL. Dosing will be initiated on day 1 and continue through day 5. Dosing will be daily (qd) by oral gavage (po) for all treatment arms (Compound I-8 was administered orally at 4 different doses, 10, 30, 100 and 300 mg/kg; in addition, a combination of niacin/EPA in a ratio of 100/200 mg/kg was also employed). Body weights will be measured for all rats on days 1 through 5. On day 4, a blood sample (fed) will be collected from each rat, processed for plasma and stored at −80° C. Plasma triglyceride level was determined from commercial kits using standard protocols. […] Because compound I-8 was able to lower fed plasma triglyceride, it is useful to treat dyslipidemia as well as other diseases such as type I hyperlipoproteinemia and type 5 hyperlipoproteinemia."}, "[3]": {"system": "PCSK9", "test": "PCSK9 secretion assay in HepG2 cells (PCSK9 ELISA of supernatant)", "type": "cell-based", "details": "for lowering of PCSK9 (FIG. 1): 25 and 50 μM", "description": "HepG2 cells (from ATCC, Catalog no. HB-8065) were maintained in DMEM (Invitrogen) supplemented with 10% fetal bovine serum (Invitrogen). The day prior to the PCSK9 assay, cells are seeded in 96-well collagen coated plates at 25,000 cells/well.\nThe compounds of the invention were stored at −20° C. until used. The test article compound was dissolved in 100% ethanol to a 50 mM stock solution. This was then diluted in FBS to a final concentration of 1 mM. This solution was placed in a sonicating water bath for 30 minutes. Subsequent dilutions were then made in FBS supplemented with an equivalent volume of ethanol and mixed by vortexing.\nHepG2 cells were seeded onto a collagen coated 96-well plate (Becton Dickinson, Catalog no. 35-4407) the day prior to the assay, as described above. The next day, the cell medium was removed, washed once with […] serum free DMEM to remove any residual PCSK9, and replaced with […] of serum free DMEM. Ten microliters of each compound concentration prepared in FBS was then added. Each concentration of compound was tested in triplicate. The compound was incubated with the cells overnight for 16 hours. Following this incubation, 10 µL of AlamarBlue was added to each well and cells incubated for another 2 hours. The plates were then removed and AlamarBlue fluorescence was measured (excitation, 550 nm and […]) to assess cell viability. Cell culture supernatant was then diluted […] 1×RDSP Calibrator Diluent and PCSK9 ELISA was then performed with […] of this diluted sample, as per the manufacturer's instructions. The ELISA was measured on a Victor X5 multilabel plate reader (PerkinElmer) at an absorbance of 450 nm with background correction measured at 550 nm (The PCSK9 Elisa kits can be purchased from R&D System, Catalog no. DPC900).\nAlternatively, an IC50 could also be obtained when this type of assay was carried out using at least 6 different concentrations of the test compounds. Table 1 lists the IC50 values for the compounds tested in this assay."}, "[4]": {"system": "APOE*3Leiden mice", "test": "Plasma cholesterol and triglycerides in ApoE3Leiden mice on Western type diet, 2 and 4 weeks of treatment", "type": "in vivo", "details": "female APOE*3Leiden mice, WTD, I-8 0.75% w/w in diet, atorvastatin 0.0015% w/w in diet", "description": "The study was conducted using female APOE*3Leiden mice (groups of each n=10) and one untreated reference control group on chow (n=5). To induce dyslipidemia, a high cholesterol Western type diet containing 1% cholesterol, 15% cacao butter, 40.5% sucrose and 1% corn oil (WTD) was fed to the mice for a total experimental period of 20 weeks (of which 4 weeks are a run-in period).\nThe dyslipidemic mice were grouped on the basis of plasma cholesterol at t=0 assayed in 4 h fasting blood. Mice with low cholesterol after the run-in period were excluded so that homogenous experimental groups were obtained. A group of reference mice (n=5) remained on a chow diet during the complete study period (normolipidemic reference mice).\nThis mix was then added to the master mix (containing the rest of the ingredients) and mixed thoroughly. The diet was frozen to −20° C. On the subsequent day, the diet was broken into small pellets (approx 5 g per piece) and freeze dried, and stored in vacuum sealed bags (approx 500 g) at −20° C. until use. The diets were refreshed daily and unused diet was discarded.\n1) Body weight at −4, 0, 2, 4 weeks 2) Food intake (g/day/mouse) at 0, 2, 4 weeks (per cage) 3) Plasma total cholesterol at −4, 0, 2, 4 weeks (individually) 4) Plasma triglycerides at −4, 0, 2, 4 weeks (individually) 5) Lipoprotein profiles at 0 (pool of all animals) and 4 weeks (cholesterol distribution over VLDL, LDL and HDL-sized particles, analysis on group level).\nEDTA plasma was collected in weeks −4, 0, 2 and 4 weeks."}}}
{"smiles": "CC/C=C\\C/C=C\\C/C=C\\C/C=C\\C/C=C\\CCCC(=O)NCCNC(=O)c1cccnc1", "note": "[Compound I-8, N-(2-(5Z,8Z,11Z,14Z,17Z)-eicosa-5,8,11,14,17-pentaenamidoethyl)nicotinamide]", "values": [{"measurement": "liver weight (FIG. 7)", "setting": "[1]", "result": "statistically significant drop"}, {"measurement": "fed plasma triglyceride level (FIG. 3)", "setting": "[2]", "result": "dose dependent decrease"}, {"measurement": "PCSK9 levels in HepG2 cells incubated with atorvastatin (FIG. 2)", "setting": "[3]; HepG2 cells incubated with 10 μM of atorvastatin along with test article", "result": "decrease PCSK9 levels in a dose response manner to well below the atorvastatin level induced levels"}, {"measurement": "lowering of PCSK9 (FIG. 1)", "setting": "[3]; HepG2 cells", "result": "significant lowering of PCSK9"}, {"measurement": "plasma cholesterol at t=2 weeks (FIG. 4)", "setting": "[4]; 2 weeks", "result": "statistically significant reduction"}, {"measurement": "plasma cholesterol after 4 weeks of treatment (FIG. 5)", "setting": "[4]; 4 weeks", "result": "Comparable level of cholesterol reduction"}, {"measurement": "plasma triglyceride levels after 4 weeks of treatment (FIG. 6)", "setting": "[4]; 4 weeks", "result": "significant reduction"}]}
{"smiles": "CC/C=C\\C/C=C\\C/C=C\\C/C=C\\C/C=C\\CCCC(=O)NCCNC(C)=O", "note": "[Compound A, (5Z,8Z,11Z,14Z,17Z)—N-(2-acetamidoethyl)icosa-5,8,11,14,17-pentaenamide, reference compound]", "values": [{"measurement": "activity toward PCSK9 (FIG. 1)", "setting": "[3]; HepG2 cells, highest tested concentration of 50 μM", "result": "essentially no activity"}]}
{"smiles": "CC(C)c1c(C(=O)Nc2ccccc2)c(-c2ccccc2)c(-c2ccc(F)cc2)n1CC[C@@H](O)C[C@@H](O)CC(=O)O", "note": "[atorvastatin, reference compound]", "values": [{"measurement": "PCSK9 secretion (FIG. 2)", "setting": "[3]; HepG2 cells, 10 μM atorvastatin alone", "result": "increases PCSK9 secretion"}]}
{"smiles": "CC/C=C\\C/C=C\\C/C=C\\C/C=C\\C/C=C\\CCCC(=O)NCCNC(=O)c1ccccc1", "note": "[II-1, N-(2-((5Z,8Z,11Z,14Z,17Z)-icosa-5,8,11,14,17-pentaenamido)ethyl)benzamide]", "values": [{"measurement": "lowering of PCSK9 (FIG. 1)", "setting": "[3]; HepG2 cells", "result": "significant lowering of PCSK9"}]}
